Measured values as given in patent US10526316B2, “Quinoxaline and pyridopyrazine derivatives as PI3Kβ inhibitors” (Janssen Pharmaceutica NV, priority 2015, dated 2020).
Like-named read-outs stand apart in the source and are kept apart here.

Experiments:
[1] = target: T1, PI3Kβ (Homo sapiens, UniProt P42338); experiment: Enzyme binding assay (KINOMEscan, DiscoveRx)
T1 construct: purchased DiscoveRx Corporation, San Diego (contract service, KINOMEscan)
Description: (§1) Enzyme Binding Assays (KINOMEscan®)
Kinase enzyme binding affinities of compounds disclosed herein were determined using the KINOMEscan technology performed by DiscoveRx Corporation, San Diego, Calif., USA (www.kinomescan.com). Table A reports the obtained Kd values (nM), with the Kd being the inhibitor binding constant: […]

[2] = target: T2, PI3Kδ (Homo sapiens, UniProt O00329); experiment: Enzyme binding assay (KINOMEscan, DiscoveRx); settings: PIK3Cδ_h
T2 construct: purchased DiscoveRx Corporation, San Diego (contract service, KINOMEscan)
T2 sequence (O00329 1-1044): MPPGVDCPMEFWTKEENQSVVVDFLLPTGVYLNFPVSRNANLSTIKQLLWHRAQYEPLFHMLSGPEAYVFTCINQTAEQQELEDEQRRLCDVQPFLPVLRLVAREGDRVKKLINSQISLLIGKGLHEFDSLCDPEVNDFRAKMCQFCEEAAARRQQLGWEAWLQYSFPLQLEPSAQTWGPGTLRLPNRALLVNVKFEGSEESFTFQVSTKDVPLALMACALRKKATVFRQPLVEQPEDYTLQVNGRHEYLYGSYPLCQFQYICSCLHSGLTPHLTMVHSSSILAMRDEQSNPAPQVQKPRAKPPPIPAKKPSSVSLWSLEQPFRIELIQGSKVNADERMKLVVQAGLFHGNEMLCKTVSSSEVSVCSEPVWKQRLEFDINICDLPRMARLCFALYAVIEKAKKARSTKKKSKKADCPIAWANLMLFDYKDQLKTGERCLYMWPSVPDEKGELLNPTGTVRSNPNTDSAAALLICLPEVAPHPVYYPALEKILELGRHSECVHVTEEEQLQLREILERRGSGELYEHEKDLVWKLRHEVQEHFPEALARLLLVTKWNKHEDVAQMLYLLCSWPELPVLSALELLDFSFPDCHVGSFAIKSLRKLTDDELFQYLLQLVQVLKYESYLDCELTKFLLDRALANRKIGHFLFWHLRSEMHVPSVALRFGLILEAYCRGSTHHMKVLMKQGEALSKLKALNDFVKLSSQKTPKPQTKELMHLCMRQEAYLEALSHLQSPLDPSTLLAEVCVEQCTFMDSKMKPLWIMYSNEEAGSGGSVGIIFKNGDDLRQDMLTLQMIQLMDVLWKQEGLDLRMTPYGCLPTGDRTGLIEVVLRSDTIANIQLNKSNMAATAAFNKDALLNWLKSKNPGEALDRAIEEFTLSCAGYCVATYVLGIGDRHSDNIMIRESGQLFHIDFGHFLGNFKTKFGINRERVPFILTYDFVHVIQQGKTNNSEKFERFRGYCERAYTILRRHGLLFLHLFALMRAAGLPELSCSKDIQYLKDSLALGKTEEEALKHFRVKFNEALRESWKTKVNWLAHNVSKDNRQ
Description: as §1
(§2) Kinase enzyme binding affinities of compounds disclosed herein were determined using the KINOMEscan technology performed by DiscoveRx Corporation, San Diego, Calif., USA (www.kinomescan.com).

[3] = target: T3, kinase enzymes (Homo sapiens, UniProt P42336); experiment: Enzyme binding assay (KINOMEscan, DiscoveRx), further kinases of Table A; settings: PIK3Cα_h
T3 construct: purchased DiscoveRx Corporation, San Diego (contract service, KINOMEscan)
Description: as §1, §2

[4] = target: T4, kinase enzymes (Homo sapiens, UniProt P42345); experiment: as above; settings: MTOR_h
T4 construct: purchased DiscoveRx Corporation, San Diego (contract service, KINOMEscan)
Description: as §1, §2

[5] = target: T5, kinase enzymes (Homo sapiens, UniProt P48736); experiment: as above; settings: PIK3Cγ_h
T5 construct: purchased DiscoveRx Corporation, San Diego (contract service, KINOMEscan)
Description: as §1, §2

[6] = tested on: Akt phosphorylated at Ser473 in PC-3 cells; experiment: Cellular assay: phosphorylation of Akt at Ser473 in PC-3 cells (MSD ELISA); format: cell-based; settings: PC-3 cells, 60 min compound incubation, MSD ELISA, read-out: IC50 pAkt_S473
Description: (§3) Cellular activity of PI3KP inhibitors was determined by quantifying the phosphorylation of Akt in PC-3 cells. Akt phosphorylated at Ser473 and Thr308 were measured using an enzyme-linked immunosorbent assay (ELISA; Meso Scale Discovery (MSD), Gaithersburg. Md.) and specific primary antibodies from MSD.
(§4) On day 2, compound or DMSO (0.3%) was added and cells were further incubated for 60 min at 37° C. 5% CO2 in a total volume of 100 μl of medium.
(§5) The phosphoprotein assay was executed according to vendor instructions in the Phospho-Akt (Ser473) Assay Whole Cell Lysate Kit (MSD # K15100D-3) and the Phospho-Akt (Thr308) Assay Whole Cell Lysate Kit (MSD # K151DYD-3) using the lysis, blocking and wash buffer provided.
(§6) Briefly, at the end of the cell treatment period, media were removed by aspiration and adherent cells were lysed in 50 μl ice-cold lysis buffer. MSD plates are supplied pre-coated with capture antibodies for Phospho-Akt (Ser473 and Thr308). After blocking, lysates from tissue culture plates were added and plates were washed. Then, a solution containing the detection antibody (anti-total Akt conjugated with an electrochemiluminescent compound-MSD Sulfo-tag label) was added. The signals were detected using an MSD SECTOR Imager 6000 and are proportional to the phospho-Akt titres.
(§7) Data were processed. […] From these concentration-response curves, the IC50 values were calculated. Five concentrations were used for curve fitting.

[7] = tested on: Akt phosphorylated at Thr308 in PC-3 cells; experiment: Cellular assay: phosphorylation of Akt at Thr308 in PC-3 cells (MSD ELISA); format: cell-based; settings: PC-3 cells, 60 min compound incubation, MSD ELISA, read-out: IC50 pAkt_Thr308
Description: as §3, §4, §5, §6, §7

[8] = PIK3Cβ_h, read-out: Kd PIK3Cβ_h

T1 sequence (P42338 whole entry): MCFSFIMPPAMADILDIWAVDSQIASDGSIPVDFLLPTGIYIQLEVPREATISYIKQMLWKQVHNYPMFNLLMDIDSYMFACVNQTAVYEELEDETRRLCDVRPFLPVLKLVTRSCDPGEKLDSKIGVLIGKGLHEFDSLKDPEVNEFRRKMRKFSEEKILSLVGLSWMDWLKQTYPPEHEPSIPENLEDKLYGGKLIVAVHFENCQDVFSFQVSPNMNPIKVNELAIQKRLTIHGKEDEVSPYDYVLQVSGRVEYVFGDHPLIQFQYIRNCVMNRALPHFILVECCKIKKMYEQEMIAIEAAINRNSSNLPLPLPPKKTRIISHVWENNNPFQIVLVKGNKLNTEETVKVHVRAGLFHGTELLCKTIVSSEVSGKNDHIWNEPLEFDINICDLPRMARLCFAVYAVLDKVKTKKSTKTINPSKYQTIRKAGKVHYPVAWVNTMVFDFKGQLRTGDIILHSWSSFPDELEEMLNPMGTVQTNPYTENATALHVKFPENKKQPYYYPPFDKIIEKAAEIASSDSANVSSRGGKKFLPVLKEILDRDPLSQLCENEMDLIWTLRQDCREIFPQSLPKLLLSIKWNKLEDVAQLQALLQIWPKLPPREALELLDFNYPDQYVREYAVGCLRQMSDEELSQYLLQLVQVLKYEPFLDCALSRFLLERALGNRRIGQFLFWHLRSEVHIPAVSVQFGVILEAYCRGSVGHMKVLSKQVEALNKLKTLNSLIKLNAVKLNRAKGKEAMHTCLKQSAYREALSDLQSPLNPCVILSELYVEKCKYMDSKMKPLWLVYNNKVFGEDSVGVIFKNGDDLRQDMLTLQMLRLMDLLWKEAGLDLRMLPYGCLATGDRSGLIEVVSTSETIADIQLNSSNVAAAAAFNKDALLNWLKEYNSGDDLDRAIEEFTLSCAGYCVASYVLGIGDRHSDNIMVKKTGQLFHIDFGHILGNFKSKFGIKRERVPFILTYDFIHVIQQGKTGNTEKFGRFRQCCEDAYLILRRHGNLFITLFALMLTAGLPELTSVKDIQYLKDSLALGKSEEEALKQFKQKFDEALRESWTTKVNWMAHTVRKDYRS
T3 sequence (P42336 whole entry): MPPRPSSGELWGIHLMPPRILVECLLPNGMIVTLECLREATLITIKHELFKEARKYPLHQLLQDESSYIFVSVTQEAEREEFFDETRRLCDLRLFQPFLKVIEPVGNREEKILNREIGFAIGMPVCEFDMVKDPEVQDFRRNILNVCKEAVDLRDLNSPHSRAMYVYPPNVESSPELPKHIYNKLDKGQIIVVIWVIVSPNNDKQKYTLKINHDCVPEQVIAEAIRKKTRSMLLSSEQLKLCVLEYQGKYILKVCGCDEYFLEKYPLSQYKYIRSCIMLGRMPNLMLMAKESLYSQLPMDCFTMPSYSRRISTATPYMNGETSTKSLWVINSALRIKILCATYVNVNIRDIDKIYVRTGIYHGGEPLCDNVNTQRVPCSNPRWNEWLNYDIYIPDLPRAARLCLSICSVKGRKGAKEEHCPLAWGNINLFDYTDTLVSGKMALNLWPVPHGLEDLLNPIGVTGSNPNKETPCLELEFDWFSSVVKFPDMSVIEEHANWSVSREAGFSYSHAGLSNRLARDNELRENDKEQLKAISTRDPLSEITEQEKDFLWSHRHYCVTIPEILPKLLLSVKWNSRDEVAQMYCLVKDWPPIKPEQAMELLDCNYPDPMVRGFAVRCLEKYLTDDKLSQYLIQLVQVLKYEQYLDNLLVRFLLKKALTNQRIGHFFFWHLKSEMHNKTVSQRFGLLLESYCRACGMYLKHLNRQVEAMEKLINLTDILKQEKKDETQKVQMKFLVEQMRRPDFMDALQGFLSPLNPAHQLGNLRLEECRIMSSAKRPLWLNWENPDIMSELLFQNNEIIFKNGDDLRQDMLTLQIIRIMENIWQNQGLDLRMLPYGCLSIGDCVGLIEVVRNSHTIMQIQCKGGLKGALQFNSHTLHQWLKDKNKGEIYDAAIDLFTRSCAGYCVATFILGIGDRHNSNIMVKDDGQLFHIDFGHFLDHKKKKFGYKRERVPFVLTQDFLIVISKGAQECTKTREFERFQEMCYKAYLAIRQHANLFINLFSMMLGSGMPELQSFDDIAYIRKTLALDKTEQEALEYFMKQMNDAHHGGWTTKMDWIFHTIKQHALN
T5 sequence (P48736 whole entry): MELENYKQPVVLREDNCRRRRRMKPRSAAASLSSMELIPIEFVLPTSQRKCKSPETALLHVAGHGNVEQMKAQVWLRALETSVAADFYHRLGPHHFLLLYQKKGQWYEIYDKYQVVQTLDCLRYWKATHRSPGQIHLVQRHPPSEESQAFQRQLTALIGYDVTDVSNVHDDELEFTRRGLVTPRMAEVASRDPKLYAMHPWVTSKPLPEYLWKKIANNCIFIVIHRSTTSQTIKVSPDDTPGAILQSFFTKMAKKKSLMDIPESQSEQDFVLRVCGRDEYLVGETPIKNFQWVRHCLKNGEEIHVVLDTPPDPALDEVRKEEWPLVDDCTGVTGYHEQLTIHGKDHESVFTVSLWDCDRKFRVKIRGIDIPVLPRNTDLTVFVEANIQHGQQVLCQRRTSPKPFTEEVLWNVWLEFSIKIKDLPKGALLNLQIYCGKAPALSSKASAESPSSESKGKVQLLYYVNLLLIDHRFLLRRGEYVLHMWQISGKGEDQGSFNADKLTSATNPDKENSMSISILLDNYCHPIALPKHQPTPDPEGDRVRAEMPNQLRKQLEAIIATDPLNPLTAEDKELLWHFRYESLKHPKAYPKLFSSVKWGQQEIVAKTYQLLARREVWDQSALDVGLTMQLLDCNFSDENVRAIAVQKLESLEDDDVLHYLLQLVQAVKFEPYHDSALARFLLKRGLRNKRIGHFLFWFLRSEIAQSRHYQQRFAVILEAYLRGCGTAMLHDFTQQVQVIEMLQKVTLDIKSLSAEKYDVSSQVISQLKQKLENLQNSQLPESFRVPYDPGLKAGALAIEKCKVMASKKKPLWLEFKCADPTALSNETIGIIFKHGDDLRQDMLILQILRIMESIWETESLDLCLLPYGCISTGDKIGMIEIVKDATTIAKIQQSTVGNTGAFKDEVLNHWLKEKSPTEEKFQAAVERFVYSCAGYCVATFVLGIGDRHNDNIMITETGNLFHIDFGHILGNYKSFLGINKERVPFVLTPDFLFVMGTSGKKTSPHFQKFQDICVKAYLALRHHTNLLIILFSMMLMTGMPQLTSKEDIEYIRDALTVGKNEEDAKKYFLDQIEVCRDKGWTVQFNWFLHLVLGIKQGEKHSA

| Compound | Kd [1, 8] [µM] | Kd [2] [µM] | Kd [3] [µM] | Kd [4] [µM] | Kd [5] [µM] | IC50 ([6]; Homo sapiens, PC-3, 1 h) [µM] | IC50 ([7]; Homo sapiens, PC-3, 1 h) [µM] | IC50 [6] [µM] | IC50 [7] [µM] | Kd ([1]; Kd PIK3Cβ_h) [µM] | Kd ([1]; read-out: Kd PIK3Cβ_h) [µM] |
| --- | --- | --- | --- | --- | --- | --- | --- | --- | --- | --- | --- |
| Cc1c(F)cccc1CN(C)c1cc(C(=O)N(C)C)cc2ncc(N3CCOCC3)nc12 [Compound 354] | 0.063 | 2.4 | 8.13 | > 30.2 | 28.2 | > 0.513 | > 0.513 | – | – | – | – |
| CC(C)NCCNC(=O)c1cc(C(C)Nc2ccc(Cl)c(F)c2)c2nc(N3CCOCC3)cnc2c1 (single isomer, unassigned) [Compound 312a] | 1.15 | 10 | 15.5 | > 10 | > 30.2 | > 0.513 | > 0.513 | – | – | – | – |
| CC(Nc1cc(F)cc(F)c1)c1cc(C(=O)N2CCNC(C(F)(F)F)C2)cc2ncc(N3CCOCC3)nc12 (single isomer, unassigned) [Compound 237b] | 0.074 | 7.76 | 8.71 | > 30.2 | > 30.2 | – | – | > 0.513 | > 0.513 | – | – |
| O=C(NCCO)c1cc(N2CCC2c2ccc(F)cc2)c2nc(N3CCOCC3)cnc2c1 (centres unmarked) [Compound 391] | 0.251 | 3.39 | 5.49 | 24.5 | 12 | > 0.513 | > 0.513 | – | – | – | – |
| CC(Nc1cc(F)c(F)c(F)c1)c1cc(C(=O)N(C)C2CCNC2)cc2ncc(N3CCOCC3)nc12 (single isomer, unassigned) [Compound 296b] | 0.014 | 9.33 | > 30.2 | > 30.2 | > 30.2 | – | – | 0.468 | 0.339 | – | – |
| CC(Oc1cc(F)cc(F)c1)c1cc(C(=O)N(C)C)cc2ncc(N3CCOCC3)nc12 (centres unmarked) [Compound 53] | 0.003 | 0.692 | 2.95 | > 30.2 | 21.4 | 0.214 | 0.148 | – | – | – | – |
| O=C(NCCO)c1cc(NCc2cc(F)cc(F)c2)c2nc(N3CCOCC3)cnc2c1 [Compound 229] | 0.007 | 1.74 | 3.89 | 12.6 | 20.4 | 0.186 | 0.096 | – | – | – | – |
| CC(Nc1cc(F)cc(F)c1)c1cc(C(=O)NS(=O)(=O)C2CC2)cc2ncc(N3CCOCC3)nc12 (centres unmarked) [Compound 218] | 0.005 | 1.17 | 0.537 | 3.31 | 3.09 | > 0.513 | > 0.513 | – | – | – | – |
| CC(Nc1ccc(F)c(F)c1)c1cc(C(=O)N2CC[C@@H](O)C2)cc2ncc(N3CCOCC3)nc12 (some centres unmarked) [Compound 300] | 0.004 | 0.513 | 2.69 | > 30.2 | 17 | 0.071 | 0.085 | – | – | – | – |
| CCN1CCN(C(=O)c2cc(C(C)Oc3cccc(F)c3)c3nc(N4CCOCC4)cnc3c2)CC1 (single isomer, unassigned) [Compound 91] | 0.01 | 1.23 | 4.47 | > 30.2 | 21.4 | > 0.513 | – | – | 0.234 | – | – |
| CC(Oc1ccc(F)c(F)c1)c1cc(C(=O)N2CCN3CCC[C@H]3C2)cc2ncc(N3CCOCC3)nc12 (single isomer, unassigned) [Compound 369a] | 0.02 | 0.525 | 7.24 | 25.1 | > 30.2 | ~0.363 | – | – | 0.251 | – | – |
| CN[C@H]1CCN(C(=O)c2cc(NCc3cc(F)cc(F)c3)c3nc(N4CCOCC4)cnc3c2)C1 [Compound 352] | 0.002 | 1 | 2.29 | > 30.2 | 9.77 | 0.014 | 0.021 | – | – | – | – |
| C[C@@H](Nc1cc(F)cc(F)c1)c1cc(C(=O)NCCN(C)C)cc2ncc(N3CCOCC3)nc12 [Compound 184a] | – | – | 0.806 | 21.9 | 1.48 | – | – | 0.003 | 0.002 | 0.0001 | – |
| CC(Nc1ccc(F)c(F)c1)c1cc(C(=O)NCCO)cc2ncc(N3CCOCC3)nc12 (single isomer, unassigned) [Compound 279b] | 1.91 | – | 26.3 | > 30.2 | 6.46 | – | – | 0.059 | > 0.513 | – | – |
| CN(C)C(=O)c1cc([C@@H]2CCCN2c2cc(F)cc(F)c2)c2nc(N3CCOCC3)cnc2c1 [Compound 2] | 1.09 | 16.4 | 12.3 | – | – | > 0.513 | > 0.513 | – | – | – | – |
| C[C@@H](Nc1cc(F)cc(F)c1)c1cc(C(=O)NCCN(C)C)cc2ncc(N3CCOCC3)nc12 [Compound 184b] | – | – | 0.589 | 20 | 1.1 | – | – | 0.003 | 0.002 | – | 0.0001 |
| C[C@@H](Nc1cc(F)cc(F)c1)c1cc(C(=O)NCCN(C)C)cc2ncc(N3CCOCC3)nc12 [Compound 184c] | – | – | 0.829 | 24 | 1.27 | – | – | 0.004 | 0.002 | – | 0.0001 |
